Results: ChEMBL document CHEMBL1134921 (Bioorg Med Chem Lett, 2002)

Tests used:
Mus musculus [1] = organism: Mus musculus; experiment: Effective dose for Antinociceptive activity was determined in mice using Tail -Flick Assay: The symbol > signifies that no effect was produced at that dose; format: functional
[2] = molecular target: Neuronal nicotinic acetylcholine receptor; experiment: Binding affinity against Nicotinic acetylcholine receptor using [3H](-)-nicotine radioligand; format: protein-complex assay
Rattus norvegicus [3] = organism: Rattus norvegicus; experiment: Effective dose for Antinociceptive activity was determined in rat using drug discrimination assay: The symbol > signifies that no effect was produced at that dose; format: functional
Mus musculus [4] = experiment: Effective dose for Antinociceptive activity expressed as Spontaneous activity was determined in mice antagonized by 1 mg/Kg of Mecamylamine: The symbol > signifies that no effect was produced at that dose; format: functional
Mus musculus [5] = organism: Mus musculus; experiment: Effective dose for Antinociceptive activity was determined in mice using Tail -Flick Assay; format: functional
Mus musculus [6] = experiment: Effective dose for Antinociceptive activity expressed as Spontaneous activity was determined in mice antagonized by 1 mg/Kg of Mecamylamine.; format: functional
Rattus norvegicus [7] = organism: Rattus norvegicus; experiment: Effective dose for Antinociceptive activity was determined in rat using drug discrimination assay; format: functional
Mus musculus [8] = experiment: Compound was tested to antagonize the antinociceptive actions of 2.5 mg/kg of (-)nicotine as measured in the tail-flick assay in mice; format: functional
[9] = Mus musculus, Tail, read-out: ED50
[10] = Rattus norvegicus, read-out: ED50

| Structure (SMILES) | ED50 (Mus musculus [1]) [µmol/kg] | Ki [2] [nM] | ED50 (Mus musculus [5]; [9]) [µmol/kg] | ED50 (Mus musculus [6]; Mus musculus, read-out: ED50) [µmol/kg] | ED50 (Rattus norvegicus [7]; [10]) [µmol/kg] | other results |
| --- | --- | --- | --- | --- | --- | --- |
| CCCc1ccc(C2CCCN2C)cn1 (racemic) | > 70 | 25 | – | – | – | ED50 (Rattus norvegicus [3]): >20 µM/kg |
| CCCCCc1ccc(C2CCCN2C)cn1 (racemic) | > 50 | 72 | – | – | – | ED50 (Mus musculus [4]): > 50 µmol/kg |
| Cc1ccc(C2CCCN2C)cn1 (racemic) | – | 1.8 | 3.5 | 1 | 0.4 | – |
| CN1CCC[C@H]1c1cccnc1 (racemic) [NICOTINE] | – | – | 9.9 | 4.9 | 0.6 | – |
| CCc1ccc(C2CCCN2C)cn1 (single isomer, unassigned; (-)) | – | 5.6 | 2.1 | 1.4 | 1.1 | – |
| CCCc1ccc(C2CCCN2C)cn1 (single isomer, unassigned; (-)) | – | 22 | – | – | – | AD50 (Mus musculus [8]): 4.9 µM/kg; ED50 (Mus musculus [4]): > 35 µmol/kg; ED50 (Rattus norvegicus [3]): >50 µM/kg |
| CCCCc1ccc(C2CCCN2C)cn1 (single isomer, unassigned; (-)) | > 50 | 21 | – | – | – | AD50 (Mus musculus [8]): 9.2 µM/kg |
| CN1CCC[C@H]1c1cccnc1 [NICOTINE] | – | – | – | – | – | ED50 (Mus musculus [5]): 7.4 µM/kg; ED50 (Mus musculus [6]): 3.1 µM/kg; ED50 (Rattus norvegicus [7]): 0.6 µM/kg |
